Data on two compounds can be found in patent publication US10975033B2, “Methods for treating inflammation and hypertension with γ-ketoaldehyde skavengers” (Vanderbilt University, priority 2011, dated 2021).

In series [1] the test system is carrageenin-induced paw edema. Put plainly: Carrageenin-induced paw edema rat model. Format: in vivo. The following applies: for mean reduction in edema: 3 hrs after injection of carrageenin, FIG. 7. From the text:
As indicated above, one embodiment of the present invention is the use of salicylamine to treat inflammation. […] The carrageenin-induced paw edema rat model has been probably the most utilized animal model to screen for potency of NSAIDs and other antiinflammatory compounds to inhibit inflammation for decades. For example, see Proc Soc Exp Biol Med 111:544 in 1962 by Winter C A et. al., entitled: “Carrageenin-induced edema of the hind paw of the rat as an assay for antiinflammatory drugs”. Importantly, it has been shown that this model is one of the most robust predictors of clinical potency of NSAIDs^54.
Our initial experiments tested the ability of a single dose of salicylamine (200 mg/kg), administered intraperitoneally, to reduce paw edema at various time points. Carrageenan (100 μl of a 1% solution in saline) was injected into the hind right footpad. Footpad volume was measured in a water displacement plethysmometer before injection of carrageenin and at 2 hr, 3 hr, and 4 hr post-carrageenin. Edema was calculated as footpad volume change (ml) as a percentage of original paw volume for each individual animal.
The efficacy an analog of salicylamine, 5-methyl-salicylamine, to inhibit carrageenin-induced paw edema was accessed at 3 hrs after injection of carrageenin at two doses, 200 and 100 mg/kg ip (FIG. 7).
For orientation: Carrageenan injected into the paw causes an acute inflammation.

The test system of series [2] is neutrophil cell counts in lung bronchoalveolar lavage fluid. Description: Neutrophil cell counts in lung bronchoalveolar lavage fluid of LPS-injected mice. The series is classed as in vivo. The following applies: ip at 1 hr, 3 hrs, 5 hrs after LPS; determined 8 hrs after LPS; FIG. 11. How it is done:
An in vivo experiment was performed to explore whether treatment with salicylamine would down regulate the activity of NF-kB in animals injected with LPS. The animals we used were mice with a luciferase NF-kB reporter gene developed by Dr. Timothy Blackwell mentioned previously. LPS was injected into mice and salicylamine was injected intraperitoneally at 1 hr, 3 hrs, and 5 hrs after the LPS injection. Lung NF-kB luciferase assay and neutrophil cell counts in lung bronchoalveolar lavage fluid (BAL) were then determined 8 hrs after the LPS injection. There was a reduction in both (a) activity of NF-kB (FIG. 10) (b) and neutrophil cell counts (FIG. 11), both of which are indicative of a pronounced anti-inflammatory effect of salicylamine treatment in these animals.

The subject of series [3] is cells exposed to a lethal concentration of the oxidant t-butylhydroperoxide. Put plainly: Protection of cells against a lethal concentration of t-butylhydroperoxide (FIG. 5). The series is classed as cell-based. From the text: One example is shown in FIG. 5, where cells are exposed to a lethal concentration of the oxidant t-butylhydroperoxide. […] Accordingly, we suspected that the γ-KAs generated by the COX pathways would likely be very pro-inflammatory, which might explain the underlying mechanism by which NSAID's exert some their anti-inflammatory effects.

A short description of series [4]: Reactivity of scavenger with γ-KAs relative to lysine. The following applies: more reactive than lysine. From the text: Other embodiments of the present invention include the use of analogs of pyridoxamine that are less polar but retain the critical molecular structure of this molecule responsible for intercepting γ-KAs^49. One example is 2-hydroxy-benzylamine (salicylamine, SA) which is 980 times more reactive than lysine with γ-KAs.
It is important to emphasize that the use of salicylamine is one example of the present invention. Other embodiments include compounds that intercept γ-KA scavengers on various biological processes, their analogs and salt forms thereof. Different non-limiting examples of compounds of the present invention are listed below, which intercept γ-KAs with varying degrees of hydrophilicity. Additionally, to solubilize the more hydrophobic compounds, they have been converted them to an acetate salt. These react with γ-KAs in vitro at a rate more than 2 orders of magnitude greater than the potency of the reaction of γ-KAs with the ε-amine of lysine^49. […] Included are analogs, salts, and pharmaceutical compositions comprising compounds that intercept γ-KA scavengers on various biological processes.

Another series has as its system NF-κB. Put plainly: LPS-induced NF-κB expression in NF-κB reporter macrophages (luciferase reporter assay). The settings on record: varying concentrations, FIG. 9. Format: cell-based. The source says: The effect of γ-KAs and salicylamine on induction of NF-κB was explored using a novel luciferase reporter assay to quantitatively monitor the induction of expression of NF-κB both in vitro in cells and in vivo^55; 56. NF-κB is required for maximal induction of many cytokines which are thought to be important in the generation of the acute inflammatory responses^57. Accordingly, the downstream effects of an agent that suppresses the induction of NF-κB would be a reduction in the level of inflammation. The first question we asked was does exposure of cells to γ-KAs induce the expression of NF-κB using the luciferase reporter assay mentioned above. […] The abbreviation RLU in this figure stands for Relative Light Units that were measured by luciferase assay.
Another embodiment of the present invention is treatment with varying concentrations of salicylamine (SA) would suppress lipopolysaccharide (LPS) induced expression of NF-κB in NF-κB reporter macrophages.
(In general: A reporter such as luciferase makes a cellular process visible.)

Series [5] in a line: Pharmacokinetics of salicylamine. The series is classed as in vivo.
Another series relates to hAPO4 mice. Put plainly: Cognitive deficits in hAPO4 mouse model of human Alzheimer's disease. The series is classed as in vivo. From the text:
The present inventors have shown that levels of γ-KA adducts are increased in disease affected areas of whole brain tissue from patients with Alzheimer's disease. […] The present inventors accessed the ability of the γ-KA scavenger salicylamine to prevent the development of cognitive abnormalities in an animal model of human Alzheimer's disease, hAPO4 mice.

Another series concerns COX enzymes. The following applies: cited from earlier work.

On to `Cc1ccc(O)c(CN)c1` [5-methyl-salicylamine], for which the “mean reduction in edema” value in series [1] (100 mg/kg ip) came out at 29%; in series [1] (200 mg/kg ip) it was 60%.

Take `NCc1ccccc1O` [salicylamine, 2-hydroxy-benzylamine]: the “neutrophil cell counts in BAL” value in series [2] is recorded as “reduction”. Moreover, in series [1] (single dose 200 mg/kg intraperitoneally, 2 hr, 3 hr, 4 hr post-carrageenin, FIG. 6), the “inhibition of carrageenin-induced paw edema” value was “marked inhibition”. For the same compound, in series [1] (single intraperitoneal injection, 200 mg/kg), the “persistence of decrease in paw edema after injection of carrageenin” value is “at least 4 hrs”. Further, the “protection against cell death” value in series [3] is on record as “almost completely protected against cell death”. Further, the “reactivity with γ-KAs relative to lysine” value in series [4] came to 980 times. Besides, the “LPS induced expression of NF-κB” value with NF-κB was “concentration dependent stepwise reduction”. In series [5] (in vivo), the “plasma concentrations compared with tissue concentrations” value is recorded as “lower than tissue concentrations”. For the same compound, in series [5] (plasma, read-out: half life (t1/2) in plasma), the half-life was approximately 60 min. Besides, the “prevention of development of cognitive deficits” value in the series with hAPO4 mice is reported as “almost completely prevented”. In addition, the “inhibition of COX (cyclooxygenase) enzymes” value in the series with COX enzymes is “None of the compound listed below, including salicylamine, inhibit cyclooxygenase enzymes”.
